The source of these data is patent US4360595A, “Fermentation process for producing anandimycin” (Bristol-Myers Company, priority 1981, dated 1982).

In data set [1] the test system is E. coli. Description: lysogenic bacterial induction (ILB) assay. The format is cell-based. An excerpt:
Analytical high pressure liquid chromatography, Bacillus subtilis zone of inhibition, lysogenic bacterial induction and P388 mouse tumor assays are used throughout the above-described separation processes to monitor relative levels of anandimycin and co-produced substances.

The test system of data set [2] is tumors. Description: antitumor activity (in words). The settings on record: in vivo. Also on record: species or system experimental animals.
A short description of data set [3]: antimicrobial / antibiotic activity (in words). The format is cell-based.
Data set [4] has as its system Ent. cloacae 9659. Description: in vitro MIC, standard tube dilution procedure. The format is cell-based. The conditions noted are these: Enterobacter cloacae, 9659, read-out: Minimum Inhibitory Concentration. Here is the method: (§1) The in vitro minimum inhibitory concentrations (MIC) of anandimycin were determined against a variety of microorganisms using the standard tube dilution procedure.

The subject of data set [5] is Str. pneumoniae 9585. In words: in vitro MIC, standard tube dilution procedure. It is filed as cell-based. The settings on record: Streptococcus pneumoniae, 9585, read-out: Minimum Inhibitory Concentration. As for the experimental part: as §1

Converted amounts (≈) assume the structure as drawn.

For `C=Cc1cc(OC)c2c(c1)c(=O)oc1c2cc(OC)c2c(O)ccc(C3OC(C(C)O)C(O)C3O)c21` (stereo not drawn) [Anandimycin], the “toxicity to the host organism (E. coli)” value in data set [1] (above 1.6 μg/ml) was “toxic to the host organism”. Besides, in data set [1] (maximum concentration of 1.6 μg/ml), the ILB activity entry is “completely devoid of ILB activity”. For the same compound, the antitumor activity entry in data set [2] is “inhibit the growth of tumors in experimental animals”. The “antimicrobial / antibiotic activity” value in data set [3] is listed as “exhibit antimicrobial activity”. Besides, the figures for the MIC in data set [4] and in data set [5] were more than 63 µg/mL and 0.13 µg/mL (≈ 0.263 µM), respectively.
